This is an account of results in US6605628B1, “Method of using 5-(arysulfonyl)-, 5-(arylsulfanyl)-and 5-(arylsulfanyl)thiazolidine-2,4-diones for inhibition of farnesyl-protein transferase” (Wyeth Holdings Corporation, priority 2001, dated 2003).

Series [1] concerns the target T1, FPTase (Homo sapiens, UniProt P49354+P49356). Kind of series: in vitro FTase Inhibition Assay, H-Ras used as substrate for farnesylation. The format is biochemical. Conditions: Table I, read-out: IC50 H-Ras*.
Series [2] addresses T1, FPTase. Kind of series: in vitro FTase Inhibition Assay, K-Ras used as substrate for farnesylation. The format is biochemical. To be noted: Table I.
In series [3] the test system is K-ras dependent human colon carcinoma (LoVo). Briefly: in vivo effects against K-ras dependent human colon carcinoma (LoVo). To be noted: for S/T = No. Survivors/No.Treated: Day +35 post tumor cell implantation. The source says:
[…] For the compound of example 114, when tested against a K-ras dependent human colon carcinoma (LoVo), the following results were obtained (Table III):

Where [4] appears, read: 50 mg/kg per dose IP, BID days 1 through 20, control 0.5% Methocel 0.4% Tween 80.
Setting [5] is: 75 mg/kg per dose IP, BID days 1 through 20, control 0.5% Methocel 0.4% Tween 80.
[6] abbreviates: 100 mg/kg per dose IP, once a day on days 1 through 20, control 0.5% Methocel 0.4% Tween 80.
[7] abbreviates: 100 mg/kg per dose PO, BID days 1 through 20, control 0.5% Methocel 0.4% Tween 80.
The mark [8] stands for this setting: 100 mg/kg per dose PO, BID days 1 through 20, control 20% BCD in 1.1N HCl.
[9] abbreviates: 75* mg/kg per dose IP, BID days 1 through 20, prepared in 2% Tween 80 in D5W, control 2% Tween in D5W.

For orientation: melting point means the temperature of the solid-liquid transition. `COc1ccc(SC2(CCCCCCCCCC#Cc3ccc(Cl)cc3)SC(=O)NC2=O)cc1` (stereo not drawn) [Example 94, 5-[11-(4-Chlorophenyl)undec-10-ynyl]-5-(4-methoxy-phenylsulfanyl)-thiazolidine-2,4-dione] showed a melting point of 54 to 56 °C.
In turn, `COc1ccc(S(=O)(=O)C2(CCCCC#Cc3ccc(Cl)cc3)SC(=O)NC2=O)cc1` (stereo not drawn) [Example 98, 5-[6-(4-Chlorophenyl)hex-5-ynyl]-5-(4-methoxyphenylsulfonyl)-thiazolidine-2,4-dione] returned a melting point of 145 to 148 °C.
As a reminder, the IC50 is the point on the concentration scale where inhibition reaches its midpoint. `COc1ccc(S(=O)(=O)C2(CCCC#Cc3ccccc3Cl)SC(=O)NC2=O)cc1` (stereo not drawn) [Example 101, 5-[5-(2-Chlorophenyl)pent-4-ynyl]-5-(4-methoxybenzenesulfonyl)thiazolidine-2,4-dione] came in with a melting point of 133 to 135 °C. Besides, the IC50 at FPTase [1] was 10 to 30 nM. At FPTase [2], this compound had an IC50 of 110 to 1000 nM.
`COc1ccc(S(=O)(=O)C2(CCCC#Cc3cccc(Cl)c3)SC(=O)NC2=O)cc1` (stereo not drawn) [Example 102, 5-[5-(3-Chlorophenyl)pent-4-ynyl]-5-(4-methoxybenzenesulfonyl)thiazolidine-2,4-dione] yielded a melting point of 134 to 136 °C. On FPTase [1], the half-inhibitory concentration (IC50) fell in the range of 30 to 32 nM. The IC50 at FPTase [2] stood at 1400 nM.
`Cc1ccc(S(=O)(=O)C2(CCCC#Cc3ccc(Cl)cc3)SC(=O)NC2=O)cc1` (stereo not drawn) [Example 103, 5-[5-(4-Chlorophenyl)pent-4-ynyl]-5-(p-tolylsulfonyl)thiazolidine-2,4-dione]: the melting point lay in the range of 176 to 177 °C. Also, on FPTase [1], the half-inhibitory concentration (IC50) is 30 to 50 nM. The compound further gave an IC50 at FPTase [2] of 900 to 10000 nM.
The corresponding values for `O=C1NC(=O)C(CCCC#Cc2ccc(Cl)cc2)(S(=O)(=O)c2ccc(I)cc2)S1` (stereo not drawn) [Example 104, 5-[5-(4-Chlorophenyl)pent-4-ynyl]-5-(4-iodobenzenesulfonyl)thiazolidine-2,4-dione] are 157 to 159 °C, 30 to 54 nM and 230 to 900 nM.
The corresponding values for `O=C1NC(=O)C(CCCC#Cc2ccc(Cl)cc2)(S(=O)(=O)c2ccc(Oc3ccccc3)cc2)S1` (stereo not drawn) [Example 106, 5-[5-(4-Chlorophenyl)pent-4-ynyl]-5-(4-phenoxybenzenesulfonyl)-thiazolidine-2,4-dione] are 193 to 194 °C, 230 to 250 nM and 1300 to 1700 nM.
Turning to `O=C1NC(=O)C(CCCC#Cc2ccc(Cl)cc2)(S(=O)(=O)c2ccc3ccccc3c2)S1` (stereo not drawn) [Example 107, 5-[5-(4-Chlorophenyl)pent-4-ynyl]-5-(naphthalene-2-sulfonyl)thiazolidine-2,4-dione], the melting point was in the range of 150 to 153 °C. Moreover, at FPTase [1], the 50% inhibitory concentration (IC50) lay within 180 to 200 nM. The same compound had a half-inhibitory concentration (IC50) against FPTase [2] of 620 to 700 nM.
For `CC(=O)Nc1ccc(S(=O)(=O)C2(CCCC#Cc3ccc(Cl)cc3)SC(=O)NC2=O)cc1` (stereo not drawn) [Example 108, N-(4-{5-[5-(4-Chlorophenyl)pent-4-ynyl]-2,4-dioxothiazolidine-5-sulfonyl}phenyl)acetamide], in that order: 232 °C (dec.), 130 to 180 nM and not below 9000 nM.
In turn, `O=C1NC(=O)C(CCCC#Cc2ccc(Cl)cc2)(S(=O)(=O)c2ccc(OCc3ccccc3)cc2)S1` (stereo not drawn) [Example 111, 5-(4-Benzyloxybenzenesulfonyl)-5-[5-(4-chlorophenyl)pent-4-ynyl]-thiazolidine-2,4-dione] yielded a melting point of 181 to 184 °C. Further, the half-inhibitory concentration (IC50) on FPTase [1] lay in the range of 110 to 150 nM. At FPTase [2], this compound showed an IC50 of 300 to 550 nM.
For `CCCCOc1ccc(S(=O)(=O)C2(CCCC#Cc3ccc(Cl)cc3)SC(=O)NC2=O)cc1` (stereo not drawn) [Example 112, 5-(4-Butoxybenzenesulfonyl)-5-[5-(4-chlorophenyl)-pent-4-ynyl]-thiazolidine-2,4-dione], in that order: 116 to 118 °C, 590 to 600 nM and 1400 to 1500 nM.
`O=C1NC(=O)C(CCCC#Cc2ccc(Cl)cc2)(S(=O)(=O)c2cccc3ccccc23)S1` (stereo not drawn) [Example 113, 5-[5-(4-Chlorophenyl)pent-4-ynyl]-5-(naphthalene-1-sulfonyl)-thiazolidine-2,4-dione] yielded a melting point of 172 to 174 °C. The half-inhibitory concentration (IC50) at FPTase [1] fell in the range of 50 to 60 nM. The compound further registered an IC50 against FPTase [2] of 750 to 800 nM.
Regarding `COc1ccc(S(=O)(=O)C2(CCCC#Cc3cc(Cl)ccc3Cl)SC(=O)NC2=O)cc1` (stereo not drawn) [Example 114, 5-[5-(2,5-Dichloro-phenyl)pent-4-ynyl]-5-(4-methoxy-benzenesulfonyl)-thiazolidine-2,4-dione], the half-inhibitory concentration (IC50) on FPTase [1] lay in the range of 13 to 32 nM. This compound came in with an IC50 against FPTase [2] of 32 to 320 nM. Also, in series [3] (setting [4]), the “% T/C, Day8” value came to 74%; the “% T/C, Day 15” value was 47%; the “% T/C, Day 22” value came to 43%; the “% T/C, Day 29” value is on record as 59%. In addition, in series [3] (setting [4]), the “% T/C, Day 36” value is on record as 76%; the “Mean Tumor Weight, Day8” value was determined as 65 mg; the “Mean Tumor Weight, Day 15” value came out at 146 mg; the “Mean Tumor Weight, Day 22” value turned out to be 258 mg. Besides, in series [3] (setting [4]), the “Mean Tumor Weight, Day 29” value turned out to be 445 mg; the “Mean Tumor Weight, Day 36” value stood at 964 mg; the “S/T = No. Survivors/No.Treated” value was 5/10. Further, in series [3] (setting [5]), the “% T/C, Day8” value amounted to 51%; the “% T/C, Day 15” value is recorded as 36%; the “% T/C, Day 22” value was 43%; the “% T/C, Day 29” value is recorded as 67%. In series [3] (setting [5]), the “% T/C, Day 36” value was determined as 60%; the “Mean Tumor Weight, Day8” value is 45 mg; the “Mean Tumor Weight, Day 15” value amounted to 110 mg; the “Mean Tumor Weight, Day 22” value came out at 255 mg. Moreover, in series [3] (setting [5]), the “Mean Tumor Weight, Day 29” value is 504 mg; the “Mean Tumor Weight, Day 36” value was determined as 764 mg; the “S/T = No. Survivors/No.Treated” value is reported as 8/10. In addition, in series [3] (setting [6]), the “% T/C, Day8” value worked out at 35%; the “% T/C, Day 15” value is 41%; the “% T/C, Day 22” value is 42%; the “% T/C, Day 29” value was found to be 46%. For the same compound, in series [3] (setting [6]), the “% T/C, Day 36” value stood at 44%; the “Mean Tumor Weight, Day8” value was 31 mg; the “Mean Tumor Weight, Day 15” value was 125 mg; the “Mean Tumor Weight, Day 22” value amounted to 251 mg. Also, in series [3] (setting [6]), the “Mean Tumor Weight, Day 29” value is 341 mg; the “Mean Tumor Weight, Day 36” value is 559 mg; the “S/T = No. Survivors/No.Treated” value is 9/10. In series [3] (setting [7]), the “% T/C, Day8” value is 70%; the “% T/C, Day 15” value turned out to be 77%; the “% T/C, Day 22” value stood at 76%; the “% T/C, Day 29” value was determined as 81%. In series [3] (setting [7]), the “% T/C, Day 36” value is given as 74%; the “Mean Tumor Weight, Day8” value came out at 61 mg; the “Mean Tumor Weight, Day 15” value was determined as 238 mg; the “Mean Tumor Weight, Day 22” value is 454 mg. Further, in series [3] (setting [7]), the “Mean Tumor Weight, Day 29” value is given as 608 mg; the “Mean Tumor Weight, Day 36” value is listed as 934 mg; the “S/T = No. Survivors/No.Treated” value is listed as 10/10. Besides, in series [3] (setting [8]), the “% T/C, Day8” value turned out to be 81%; the “% T/C, Day 15” value worked out at 95%; the “% T/C, Day 22” value was found to be 88%; the “% T/C, Day 29” value came to 128%. In series [3] (setting [8]), the “% T/C, Day 36” value was 107%; the “Mean Tumor Weight, Day8” value stood at 50 mg; the “Mean Tumor Weight, Day 15” value is reported as 138 mg; the “Mean Tumor Weight, Day 22” value is on record as 299 mg. Also, in series [3] (setting [8]), the “Mean Tumor Weight, Day 29” value is 641 mg; the “Mean Tumor Weight, Day 36” value was determined as 872 mg; the “S/T = No. Survivors/No.Treated” value is 9/10. In addition, in series [3] (setting [9]), the “% T/C, Day8” value is 221%; the “% T/C, Day 15” value was 150%; the “% T/C, Day 22” value came to 163%; the “% T/C, Day 29” value was determined as 167%. In addition, in series [3] (setting [9]), the “% T/C, Day 36” value stood at 157%; the “Mean Tumor Weight, Day8” value stood at 86 mg; the “Mean Tumor Weight, Day 15” value worked out at 182 mg; the “Mean Tumor Weight, Day 22” value is listed as 324 mg. In series [3] (setting [9]), the “Mean Tumor Weight, Day 29” value came to 478 mg; the “Mean Tumor Weight, Day 36” value amounted to 666 mg; the “S/T = No. Survivors/No.Treated” value was 10/10.
For `COC(=O)c1ccc(C#CCCCC2(S(=O)(=O)c3ccc(OC)cc3)SC(=O)NC2=O)c(C)c1` (stereo not drawn) [Example 160, 4-{5-[5-(4-Methoxybenzenesulfonyl)-2,4-dioxothiazolidin-5-yl]pent-1-ynyl}-3-methylbenzoic Acid Methyl Ester], the melting point lay in the range of 128 to 130 °C.
As to `COc1ccc(S(=O)(=O)C2(CCCC#Cc3ccc(-n4cccc4)cc3)SC(=O)NC2=O)cc1` (stereo not drawn) [Example 161, 5-(4-Methoxybenzenesulfonyl)-5-[5-(4-pyrrol-1-yl-phenyl)pent-4-ynyl]-thiazolidine-2,4-dione], the melting point lay in the range of 206 to 207 °C. In addition, the half-inhibitory concentration (IC50) at FPTase [1] was determined as 900 nM.
For `O=C1NC(=O)C(CCCC#Cc2ccc(-n3cccc3)cc2)(S(=O)(=O)c2ccc(OC(F)(F)F)cc2)S1` (stereo not drawn) [Example 163, 5-[5-(4-Pyrrol-1-ylphenyl)pent-4-ynyl]-5-(4-trifluoromethoxybenzenesulfonyl)-thiazolidine-2,4-dione], in that order: 204 to 206 °C and 1300 nM.
